The record followed here is patent US20240150293A1, “SPIROCYCLOHEXANE DERIVATIVES, PHARMACEUTICAL COMPOSITIONS CONTAINING THEM AND THEIR USES AS ANTI-APOPTOTIC INHIBITORS” (LES LABORATOIRES SERVIER, priority 2021, published 2024).

In assay [1] the target is Cy5-labelled Mcl1 (amino acids 171-321) C286S protein (UniProtKB Q07820) (Homo sapiens (Human), UniProt Q07820, C286S). Description: Inhibition of Mcl-1 by the fluorescence quenching assay (Example A, Method B). Format: binding. The method in brief: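 Cy5-labelled Mcl1 171-321 C286S (1 nM) quenched by TQ5WS-labelled PUMA peptide (10, 20 or 400 nM); displacement raises fluorescence (Ex 620/Em 680 nm). Buffer 10 mM HEPES, 150 mM NaCl, 0.05% Tween 20, pH 7.4, 5% DMSO; 2 h at room temperature, 11-point curves, IC50 converted to Ki (cKi/eKi).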
Sequence of Cy5-labelled Mcl1 (amino acids 171-321) C286S protein (Q07820 171-321 C286S): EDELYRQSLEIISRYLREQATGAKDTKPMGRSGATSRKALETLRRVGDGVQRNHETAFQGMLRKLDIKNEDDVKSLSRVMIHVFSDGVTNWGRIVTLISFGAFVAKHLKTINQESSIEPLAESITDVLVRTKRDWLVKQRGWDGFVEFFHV

Assay [2] concerns NCI-H929 cell lines. Description: In vitro cytotoxicity, CellTiter-Glo (CTG) assay (Example B, Method B). Type of assay: cell-based. Particulars: Homo sapiens, NCI-H929, 48 h, NCI-H929 cells, 48 h incubation, read-out: C50. The method in brief:
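NCI-H929 cells exposed to an 11-point compound series from 10 mM DMSO stocks (top final 30 μM) for 48 h at 37° C., 5% CO2. Viability measured as ATP by CellTiter-Glo luminescence; C50 is the concentration giving 50% cellular viability.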
On the technique in general: Cellular ATP, detected with luciferase, serves as a proxy for viable cell number.

What is called Ki is the equilibrium dissociation constant of an inhibitor or competing ligand from its target. On to `CCOc1cc2c(cc1Br)C[C@H](C[C@@H](C)COc1ccnc3c1[C@H](C)CCC3)[C@]21CC[C@](Nc2cccc(Cl)c2)(C(=O)O)CC1` [Example 817, (1r,2′S,4S)-5′-bromo-4-(3-chloroanilino)-6′-ethoxy-2′-[(2R)-2-methyl-3-{[(5R)-5-methyl-5,6,7,8-tetrahydroquinolin-4-yl]oxy}propyl]-2′,3′-dihydrospiro[cyclohexane-1,1′-indene]-4-carboxylic acid], for which the inhibition constant (Ki) in assay [1] is 0.229 nM. Moreover, the IC50 in assay [2] was found to be 165 nM.

Take `CCOc1cc2c(cc1F)C[C@H](C[C@@H](C)COc1ccnc3c1[C@H](C)CCC3)[C@]21CC[C@](Nc2cccc(Cl)c2)(C(=O)O)CC1` [Example 818, (1r,2′S,4S)-4-(3-chloroanilino)-6′-ethoxy-5′-fluoro-2′-[(2R)-2-methyl-3-{[(5R)-5-methyl-5,6,7,8-tetrahydroquinolin-4-yl]oxy}propyl]-2′,3′-dihydrospiro[cyclohexane-1,1′-indene]-4-carboxylic acid]: the Ki in assay [1] was found to be 0.0783 nM. The IC50 in assay [2] came out at 106 nM.

Regarding `CC(C)Oc1cc2c(cc1Cl)C[C@H](C[C@@H](C)COc1ccnc3c1[C@H](C)CCC3)[C@]21CC[C@](Nc2cccc(Cl)c2)(C(=O)O)CC1` [Example 819, (1r,2′S,4S)-5′-chloro-4-(3-chloroanilino)-2′-[(2R)-2-methyl-3-{[(5R)-5-methyl-5,6,7,8-tetrahydroquinolin-4-yl]oxy}propyl]-6′-[(propan-2-yl)oxy]-2′,3′-dihydrospiro[cyclohexane-1,1′-indene]-4-carboxylic acid], the Ki in assay [1] worked out at 0.162 nM. Besides, the IC50 in assay [2] was determined as 151 nM.

Turning to `C[C@@H](COc1ccnc2c1[C@H](C)CCC2)C[C@H]1Cc2cc(Cl)c(OC3CCCC3)cc2[C@]12CC[C@@](Nc1cccc(Cl)c1)(C(=O)O)CC2` [Example 821, (1r,2′S,4S)-5′-chloro-4-(3-chloroanilino)-6′-(cyclopentyloxy)-2′-[(2R)-2-methyl-3-{[(5R)-5-methyl-5,6,7,8-tetrahydroquinolin-4-yl]oxy}propyl]-2′,3′-dihydrospiro[cyclohexane-1,1′-indene]-4-carboxylic acid], in assay [1], the Ki was 0.408 nM. Moreover, the IC50 in assay [2] stood at 536 nM.

For `COCCOc1cc2c(cc1Cl)C[C@H](C[C@@H](C)COc1ccnc3c1[C@H](C)CCC3)[C@]21CC[C@](Nc2cccc(Cl)c2)(C(=O)O)CC1` [Example 822, (1r,2′S,4S)-5′-chloro-4-(3-chloroanilino)-6′-(2-methoxyethoxy)-2′-[(2R)-2-methyl-3-{[(5R)-5-methyl-5,6,7,8-tetrahydroquinolin-4-yl]oxy}propyl]-2′,3′-dihydrospiro[cyclohexane-1,1′-indene]-4-carboxylic acid], the Ki in assay [1] was determined as 0.149 nM. The IC50 in assay [2] amounted to 64.1 nM.

`COCCCOc1cc2c(cc1Cl)C[C@H](C[C@@H](C)COc1ccnc3c1[C@H](C)CCC3)[C@]21CC[C@](Nc2cccc(Cl)c2)(C(=O)O)CC1` [Example 823, (1r,2′S,4S)-5′-chloro-4-(3-chloroanilino)-6′-(3-methoxypropoxy)-2′-[(2R)-2-methyl-3-{[(5R)-5-methyl-5,6,7,8-tetrahydroquinolin-4-yl]oxy}propyl]-2′,3′-dihydrospiro[cyclohexane-1,1′-indene]-4-carboxylic acid]: the Ki in assay [1] is 0.108 nM. For the same molecule, the IC50 in assay [2] was 128 nM.

Consider `CCOc1cc2c(cc1C)CC(C[C@@H](C)COc1ccnc3c1[C@H](C)CCC3)[C@]21CC[C@](Nc2cccc(Cl)c2)(C(=O)O)CC1` (stereo partly drawn) [Example 824, (1r,4R)-4-(3-chloroanilino)-6′-ethoxy-5′-methyl-2′-[(2R)-2-methyl-3-{[(5R)-5-methyl-5,6,7,8-tetrahydroquinolin-4-yl]oxy}propyl]-2′,3′-dihydrospiro[cyclohexane-1,1′-indene]-4-carboxylic acid], for which, in assay [1], the inhibition constant Ki turned out to be 0.329 nM. Also, in assay [2], the IC50 was 421 nM.

As for `COc1cc2c(cc1OC)[C@]1(CC[C@@](Nc3cccc(Cl)c3)(C(=O)O)CC1)[C@@H](C[C@@H](C)COc1ccnc3c1[C@H](C)CCC3)C2` [Example 835, (1r,2′S,4S)-4-(3-chloroanilino)-5′,6′-dimethoxy-2′-[(2R)-2-methyl-3-{[(5R)-5-methyl-5,6,7,8-tetrahydroquinolin-4-yl]oxy}propyl]-2′,3′-dihydrospiro[cyclohexane-1,1′-indene]-4-carboxylic acid], the Ki in assay [1] stood at 0.438 nM. The IC50 in assay [2] was 146 nM.

For `C[C@@H](COc1ccnc2c1[C@H](C)CCC2)C[C@H]1Cc2cc3c(cc2[C@]12CC[C@@](Nc1cccc(Cl)c1)(C(=O)O)CC2)OCCCCO3` [Example 836, (1r,4S,9′S)-4-(3-chloroanilino)-9′-[(2R)-2-methyl-3-{[(5R)-5-methyl-5,6,7,8-tetrahydroquinolin-4-yl]oxy}propyl]-2′,3′,4′,5′,9′,10′-hexahydrospiro[cyclohexane-1,8′-indeno[5,6-b][1,4]dioxocine]-4-carboxylic acid], the Ki in assay [1] is 0.0472 nM. Further, the IC50 in assay [2] came to 106 nM.

Take `C[C@@H](COc1ccnc2c1[C@H](C)CCC2)C[C@H]1Cc2cc3c(cc2[C@]12CC[C@@](Nc1cccc(Cl)c1)(C(=O)O)CC2)OCCCO3` [Example 837, (1r,4S,8′S)-4-(3-chloroanilino)-8′-[(2R)-2-methyl-3-{[(5R)-5-methyl-5,6,7,8-tetrahydroquinolin-4-yl]oxy}propyl]-3′,4′,8′,9′-tetrahydro-2′H-spiro[cyclohexane-1,7′-indeno[5,6-b][1,4]dioxepine]-4-carboxylic acid]: the inhibition constant Ki in assay [1] turned out to be 0.00733 nM. The IC50 in assay [2] is 31 nM.

With `C[C@@H](COc1ccnc2c1[C@@H](C)CCC2)C[C@@H]1Cc2cc3c(cc2[C@]12CC[C@@](Nc1cccc(Cl)c1)(C(=O)O)CC2)OCO3` [Example 843, (1r,4R,6′R)-4-(3-chloroanilino)-6′-[(2R)-2-methyl-3-{[(5S)-5-methyl-5,6,7,8-tetrahydroquinolin-4-yl]oxy}propyl]-6′,7′-dihydro-2′H-spiro[cyclohexane-1,5′-indeno[5,6-d][1,3]dioxole]-4-carboxylic acid], in assay [1], the inhibitory constant (Ki) is 3.58 nM. In addition, in assay [2], the IC50 came to 1380 nM.

As for `[2H]c1c([2H])c(Cl)c([2H])c(N[C@]2(C(=O)O)CC[C@]3(CC2)c2cc4c(cc2C[C@@H]3C[C@@H](C)COc2ccnc3c2[C@H](C)CCC3)OCO4)c1[2H]` [Example 844, (1r,4S,6′S)-4-{[3-chloro(2H4)phenyl]amino}-6′-[(2R)-2-methyl-3-{[(5R)-5-methyl-5,6,7,8-tetrahydroquinolin-4-yl]oxy}propyl]-6′,7′-dihydro-2′H-spiro[cyclohexane-1,5′-indeno[5,6-d][1,3]dioxole]-4-carboxylic acid], the Ki in assay [1] is 0.0106 nM. Moreover, the IC50 in assay [2] turned out to be 29.2 nM.

Turning to `C[C@@H](COc1ccnc2c1[C@H](C)CCC2)C[C@H]1Cc2cc3c(cc2[C@]12CC[C@@](Nc1cccc(Cl)c1F)(C(=O)O)CC2)OCO3` [Example 846, (1r,4S,6′S)-4-(3-chloro-2-fluoroanilino)-6′-[(2R)-2-methyl-3-{[(5R)-5-methyl-5,6,7,8-tetrahydroquinolin-4-yl]oxy}propyl]-6′,7′-dihydro-2′H-spiro[cyclohexane-1,5′-indeno[5,6-d][1,3]dioxole]-4-carboxylic acid], the Ki in assay [1] worked out at 0.105 nM. The IC50 in assay [2] is 42 nM.

For the molecule `C[C@@H](COc1ccnc2c1[C@H](C)CCC2)C[C@H]1Cc2cc3c(cc2[C@]12CC[C@@](Nc1cccc(Cl)c1)(C(=O)O)CC2)OC(C)(C)O3` [Example 848, (1r,4S,6′S)-4-(3-chloroanilino)-2′,2′-dimethyl-6′-[(2R)-2-methyl-3-{[(5R)-5-methyl-5,6,7,8-tetrahydroquinolin-4-yl]oxy}propyl]-6′,7′-dihydro-2′H-spiro[cyclohexane-1,5′-indeno[5,6-d][1,3]dioxole]-4-carboxylic acid], the Ki in assay [1] was 0.0343 nM. The IC50 in assay [2] came to 48.6 nM.

Consider `C[C@@H](COc1ccnc2c1[C@H](C)CCC2)C[C@H]1Cc2cc3c(cc2[C@]12CC[C@@](Nc1cccc(Cl)c1)(C(=O)O)CC2)OC(F)(F)O3` [Example 849, (1r,4S,6′S)-4-(3-chloroanilino)-2′,2′-difluoro-6′-[(2R)-2-methyl-3-{[(5R)-5-methyl-5,6,7,8-tetrahydroquinolin-4-yl]oxy}propyl]-6′,7′-dihydro-2′H-spiro[cyclohexane-1,5′-indeno[5,6-d][1,3]dioxole]-4-carboxylic acid], for which, in assay [1], the Ki was determined as 0.228 nM. The IC50 in assay [2] stood at 90.5 nM.

In the case of `C[C@@H](COc1ccnc2c1[C@H](C)CCC2)C[C@H]1Cc2cc3c(cc2[C@]12CC[C@@](Nc1cccc(Cl)c1)(C(=O)O)CC2)OCC3` [Example 850, (1r,4S,6′S)-4-(3-chloroanilino)-6′-[(2R)-2-methyl-3-{[(5R)-5-methyl-5,6,7,8-tetrahydroquinolin-4-yl]oxy}propyl]-2′,3′,5′,6′-tetrahydrospiro[cyclohexane-1,7′-indeno[5,6-b]furan]-4-carboxylic acid], the inhibition constant Ki in assay [1] was 0.0173 nM. In addition, the IC50 in assay [2] stood at 50.9 nM.

As for `C[C@@H](COc1ccnc2c1[C@H](C)CCC2)C[C@H]1Cc2cc3c(cc2[C@]12CC[C@@](Nc1cccc(Cl)c1)(C(=O)O)CC2)CCO3` [Example 851, (1r,4S,6′S)-4-(3-chloroanilino)-6′-[(2R)-2-methyl-3-{[(5R)-5-methyl-5,6,7,8-tetrahydroquinolin-4-yl]oxy}propyl]-2′,3′,6′,7′-tetrahydrospiro[cyclohexane-1,5′-indeno[5,6-b]furan]-4-carboxylic acid], in assay [1], the inhibitory constant (Ki) is 0.0256 nM. Moreover, the IC50 in assay [2] stood at 34.9 nM.
